Experimental data from US20080267942A1, “BENZAZEPIN-2(1H)-ONE DERIVATIVES” (Pfizer Limited, priority 2006, published 2008).

Assays:
[1] = target: T1, porcine beta-2 adrenoceptor (Sus scrofa, UniProt Q28997); assay: cAMP assay in CHO cells transfected with the porcine beta-2 adrenoceptor (DiscoveRx Hit Hunter cAMP II); type: cell-based; conditions: CHO cells transfected with porcine beta-2 adrenoceptor, 30 minutes incubation with compound
T1 construct: expressed in transfected cells; host or cells: CHO cells
T1 sequence (Q28997 whole entry): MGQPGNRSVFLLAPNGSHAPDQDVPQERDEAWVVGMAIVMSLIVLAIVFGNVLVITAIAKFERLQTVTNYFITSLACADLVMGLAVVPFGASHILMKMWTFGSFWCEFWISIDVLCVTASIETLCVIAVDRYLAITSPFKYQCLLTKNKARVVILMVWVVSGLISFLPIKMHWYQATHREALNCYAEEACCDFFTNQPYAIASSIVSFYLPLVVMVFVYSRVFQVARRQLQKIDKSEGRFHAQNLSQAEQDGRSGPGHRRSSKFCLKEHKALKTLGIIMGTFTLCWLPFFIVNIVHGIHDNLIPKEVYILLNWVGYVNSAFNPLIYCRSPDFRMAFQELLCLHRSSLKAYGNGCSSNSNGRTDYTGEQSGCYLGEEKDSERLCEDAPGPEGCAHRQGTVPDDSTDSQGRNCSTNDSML
Procedure: (§1) CHO cells transfected with the bovine or porcine beta-2 adrenceptors were maintained in culture in DMEM/HAMS F12+10% FBS+2 mM glutamine+500 μg/ml geneticin (for the porcine receptor the medium was supplement with 1.5 mM HEPES) at 37° C. with a 5% CO2 atmosphere.
(§2) Cells were plated into 96 well viewplates in medium and incubated overnight at 37° C. with a 5% CO2 atmosphere. The cells were pre-incubated with 0.5 mM IBMX in PBS for 30 minutes prior to incubation with increasing concentrations of experimental compound (5×10^−12 to 10^−5M) for 30 minutes at 37° C. with a 5% CO2 atmosphere. At the end of the incubation time the compound was removed and the cells assayed for cAMP using the DiscoveRx Hit Hunter cAMP II™ assay kit.
(§3) Duplicate samples were run for each experimental compound and the data generated was analysed using EC50 analysis software in Graphpad Prism.

[2] = target: T2, bovine beta-2 adrenoceptor (Bos taurus, UniProt Q28044); assay: cAMP assay in CHO cells transfected with the bovine beta-2 adrenoceptor (DiscoveRx Hit Hunter cAMP II); type: cell-based; conditions: CHO cells transfected with bovine beta-2 adrenoceptor, 30 minutes incubation with compound
T2 construct: expressed in transfected cells; host or cells: CHO cells
T2 sequence (Q28044 whole entry): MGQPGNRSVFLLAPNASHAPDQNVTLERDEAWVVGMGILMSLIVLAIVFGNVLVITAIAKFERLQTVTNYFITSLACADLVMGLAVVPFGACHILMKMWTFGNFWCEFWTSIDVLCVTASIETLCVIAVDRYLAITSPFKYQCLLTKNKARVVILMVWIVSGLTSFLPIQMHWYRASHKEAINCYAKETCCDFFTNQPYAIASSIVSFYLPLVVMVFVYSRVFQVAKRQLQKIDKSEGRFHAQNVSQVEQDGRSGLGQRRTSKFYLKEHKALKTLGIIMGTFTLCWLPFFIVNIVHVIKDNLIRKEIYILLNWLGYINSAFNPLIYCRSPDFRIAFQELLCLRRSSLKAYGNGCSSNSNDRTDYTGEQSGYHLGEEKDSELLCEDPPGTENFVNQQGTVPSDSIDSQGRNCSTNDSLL
Procedure: as §1, §2, §3

| SMILES | EC50 [1] | EC50 [2] |
| --- | --- | --- |
| CC(CCc1nccs1)N[C@@H]1CCn2c(=O)[nH]c3cccc(c32)[C@H]1O (mixture of isomers) [Example 24b, 7-Hydroxy-6-{[1-methyl-3-(1,3-thiazol-2-yl)propyl]amino}-4,5,6,7-tetrahydroimidazo[4,5,1-jk][1]benzazepin-2(1H)-one] | 79 nM | 92 nM |
| Cc1nn(C)c(C)c1CCC(C)N[C@@H]1CCn2c(=O)[nH]c3cccc(c32)[C@H]1O (single isomer, unassigned) [Example 9a, 7-Hydroxy-6-{[1-methyl-3-(1,3,5-trimethyl-1H-pyrazol-4-yl)propyl]amino}-4,5,6,7-tetrahydroimidazo[4,5,1-jk][1]benzazepin-2(1H)-one] | 268 nM | 402 nM |
| Cc1ncc(CCC(C)N[C@@H]2CCn3c(=O)[nH]c4cccc(c43)[C@H]2O)s1 (single isomer, unassigned) [Example 28b, 7-Hydroxy-6-{[1-methyl-3-(2-methyll-1,3-thiazol-5-yl)propyl]amino}-4,5,6,7-tetrahydroimidazo[4,5,1-jk][1]benzazepin-2(1H)-one] | > 10000 nM | 6.6 nM |
| CC(CCc1cccc2cc[nH]c12)N[C@@H]1CCn2c(=O)[nH]c3cccc(c32)[C@H]1O (single isomer, unassigned) [Example 38b, 7-Hydroxy-6-{[3-(1H-indol-7-yl)-1-methylpropyl]amino}-4,5,6,7-tetrahydroimidazo[4,5,1-jk][1]benzazepin-2(1H)-one] | 0.9 nM | 0.8 nM |
| CC(CCc1nc2ccccc2[nH]1)NC1CCn2c(=O)[nH]c3cccc(c32)C1O (centres unmarked) [Example 12, 6-{[3-(1H-Benzimidazol-2-yl)-1-methylpropyl]amino}-7-hydroxy-4,5,6,7-tetrahydroimidazo[4,5,1-jk][1]benzazepin-2(1H)-one] | 53 nM | 34 nM |
| CNc1nc(CC(C)NC2CCn3c(=O)[nH]c4cccc(c43)C2O)ns1 (centres unmarked) [Example 10, 7-Hydroxy-6-({1-methyl-2-[5-(methylamino)-1,2,4-thiadiazol-3-yl]ethyl}amino)-4,5,6,7-tetrahydroimidazo[4,5,1-jk][1]benzazepin-2(1H)-one] | 399 nM | 497 nM |
| CC(CCc1c[nH]c2ccccc12)NC1CCn2c(=O)[nH]c3cccc(c32)C1O (single isomer, unassigned) [Example 4a, 7-Hydroxy-6-{[3-(1H-indol-3-yl)-1-methylpropyl]amino}-4,5,6,7-tetrahydroimidazo[4,5,1-jk][1]benzazepin-2(1H)-one] | 6.9 nM | 3.2 nM |
| CC(CCc1c[nH]c2cccnc12)N[C@@H]1CCn2c(=O)[nH]c3cccc(c32)[C@H]1O (single isomer, unassigned) [Example 55] | 9.9 nM | 4.4 nM |
| CC(CCc1cnc(Cl)s1)N[C@@H]1CCn2c(=O)[nH]c3cccc(c32)[C@H]1O (mixture of isomers) [Example 25, 6-{[3-(2-Chloro-1,3-thiazol-5-yl)-1-methylpropyl]amino}-7-hydroxy-4,5,6,7-tetrahydroimidazo[4,5,1-jk][1]benzazepin-2(1H)-one] | 4.2 nM | 2.9 nM |
| Cc1ncsc1CCC(C)N[C@@H]1CCn2c(=O)[nH]c3cccc(c32)[C@H]1O (mixture of isomers) [Example 34a, 7-Hydroxy-6-{[1-methyl-3-(4-methyl-1,3-thiazol-5-yl)propyl]amino}-4,5,6,7-tetrahydroimidazo[4,5,1-jk][1]benzazepin-2(1H)-one] | 45 nM | 23 nM |
| CC(CCc1cn(C)c2ccccc12)N[C@@H]1CCn2c(=O)[nH]c3cccc(c32)[C@H]1O (mixture of isomers) [Example 14b, 7-Hydroxy-6-{[1-methyl-3-(1-methyl-1H-indol-3-yl)propyl]amino}-4,5,6,7-tetrahydroimidazo[4,5,1-jk][1]benzazepin-2(1H)-one] | 5.8 nM | 8 nM |
| CC(CCc1cn(C)c2ccccc12)NC1CCn2c(=O)[nH]c3cccc(c32)C1O (centres unmarked) [Example 14a, 7-Hydroxy-6-{[1-methyl-3-(1-methyl-1H-indol-3-yl)propyl]amino}-4,5,6,7-tetrahydroimidazo[4,5,1-jk][1]benzazepin-2(1H)-one] | 26 nM | 18 nM |
| C[C@@H](CCc1c[nH]c2ccccc12)N[C@@H]1CCn2c(=O)[nH]c3cccc(c32)[C@H]1O (racemic) [Example 4c, 7-Hydroxy-6-{[3-(1H-indol-3-yl)-1-methylpropyl]amino}-4,5,6,7-tetrahydroimidazo[4,5,1-jk][1]benzazepin-2(1H)-one] | 143 nM | 103 nM |
| O=c1[nH]c2cccc3c2n1CCC(NCCCc1c[nH]c2ccccc12)C3O (centres unmarked) [Example 19, 7-Hydroxy-6-{[3-(1H-indol-3-yl)propyl]amino}-4,5,6,7-tetrahydroimidazo[4,5,1-jk][1]benzazeopin-2(1H)-one] | 65 nM | 50 nM |
| CC(CCc1cncnc1)N[C@@H]1CCn2c(=O)[nH]c3cccc(c32)[C@H]1O (single isomer, unassigned) [Example 72] | 2.7 nM | – |
| CC(CCn1cnc2ncccc21)N[C@@H]1CCn2c(=O)[nH]c3cccc(c32)[C@H]1O (single isomer, unassigned) [Example 77] | 2.8 nM | – |
| Cc1nnsc1CCC(C)N[C@@H]1CCn2c(=O)[nH]c3cccc(c32)[C@H]1O (single isomer, unassigned) [Example 70] | 3.3 nM | – |
| COc1cncc(CCC(C)N[C@@H]2CCn3c(=O)[nH]c4cccc(c43)[C@H]2O)c1 (single isomer, unassigned) [Example 73] | 0.8 nM | – |
| CC(CCc1cccc(=O)[nH]1)N[C@@H]1CCn2c(=O)[nH]c3cccc(c32)[C@H]1O (mixture of isomers) [Example 7c, 7-Hydroxy-6-{[1-methyl-3-(6-oxo-1,6-dihydropyridin-2-yl)propyl]amino}-4,5,6,7-tetrahydroimidazo[4,5,1-jk][1]benzazepin-2(1H)-one] | – | 3.8 nM |
| CC(CCn1cnc2cc(F)c(F)cc21)N[C@@H]1CCn2c(=O)[nH]c3cccc(c32)[C@H]1O (single isomer, unassigned) [Example 79] | 1 nM | – |
| CC(Cc1c[nH]c2ccccc12)N[C@@H]1CCn2c(=O)[nH]c3cccc(c32)[C@H]1O (stereo partly drawn) [Example 68, (6R,7R)-7-hydroxy-6-{[2-(1H-indol-3-yl)-1-methylethyl]amino}-4,5,6,7-tetrahydroimidazo[4,5,1-jk][1]benzazepin-2(1H)-one] | 4.9 nM | – |
| CC(CCn1nnc2ccccc21)N[C@@H]1CCn2c(=O)[nH]c3cccc(c32)[C@H]1O (single isomer, unassigned) [Example 75] | 4.7 nM | – |
| CC(CCn1cnnc1)N[C@@H]1CCn2c(=O)[nH]c3cccc(c32)[C@H]1O (single isomer, unassigned) [Example 71] | 15.1 nM | – |
| Cc1nc2ccccc2n1CCC(C)N[C@@H]1CCn2c(=O)[nH]c3cccc(c32)[C@H]1O (single isomer, unassigned) [Example 78] | 1.2 nM | – |
| CC(CCn1cnc2cc(F)cc(F)c21)N[C@@H]1CCn2c(=O)[nH]c3cccc(c32)[C@H]1O (single isomer, unassigned) [Example 69] | 0.4 nM | – |
| CC(CCn1cnc2cnccc21)N[C@@H]1CCn2c(=O)[nH]c3cccc(c32)[C@H]1O (single isomer, unassigned) [Example 76] | 2 nM | – |
| CC(CCc1cnc(O)s1)N[C@@H]1CCn2c(=O)[nH]c3cccc(c32)[C@H]1O (single isomer, unassigned) [Example 74] | 4.7 nM | – |
